Reference: US20240059655A1, “HETEROCYCLIC G-PROTEIN-COUPLED RECEPTOR 52 (GPR52) AGONISTS” (Board of Regents, The University of Texas System, priority 2020, published 2024)
Like-named read-outs stand apart in the source and are kept apart here.

How the values were obtained:
human GPR52 [1] = biological target: T1, human GPR52 (Homo sapiens (Human), UniProt Q9Y2T5); assay: Glosensor cAMP assay in HEK293 cells transiently expressing human GPR52; type: cell-based
Target sequence in this assay (Q9Y2T5 whole entry): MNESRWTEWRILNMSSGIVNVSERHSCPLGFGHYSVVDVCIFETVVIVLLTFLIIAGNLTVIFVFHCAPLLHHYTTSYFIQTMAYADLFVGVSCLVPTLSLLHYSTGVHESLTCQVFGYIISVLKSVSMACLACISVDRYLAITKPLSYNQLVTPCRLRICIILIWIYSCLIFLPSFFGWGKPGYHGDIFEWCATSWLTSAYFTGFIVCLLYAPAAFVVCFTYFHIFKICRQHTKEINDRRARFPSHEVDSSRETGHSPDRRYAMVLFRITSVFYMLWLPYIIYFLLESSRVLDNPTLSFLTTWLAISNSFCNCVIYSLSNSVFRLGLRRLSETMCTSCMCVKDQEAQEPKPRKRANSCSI

GPR52 = details: relative to compound 4a
Method: Bias factor calculations. Mean efficacy (Emax) and potency (EC50) were taken from at least three independent experiments for all compounds tested in both the cAMP and β-arrestin recruitment assays. Formulas for bias factor calculations were adapted from Kenakin^37. […] A ΔΔ log(Emax/EC50) value for each compound was calculated by subtraction of Δ log(Emax/EC50)β-arrestin from Δ log(Emax/EC50)cAmP. The inverse log of this ΔΔ log(Emax/EC50) value is the G protein bias factor. Conversely, the β-arrestin bias factor is calculated from the inverse log of ΔΔ log(Emax/EC50) when Δ log(Emax/EC50)cAmP is subtracted from Δ log(Emax/EC50)β-arrestin.

human GPR52 [2] = biological target: T1, human GPR52; assay: TANGO β-arrestin recruitment assay in HTLA cells expressing GPR52 TANGO construct; details: read-out: β-Arrestin Recruitment Emax (%)
Target sequence in this assay (Q9Y2T5 whole entry, looked up, change not shown): as the sequence (Q9Y2T5 whole entry) above

[3] = HEK293, cAMP assay, relative to compound 4 as 100% and 0.5% DMSO as 0%, mean ± SEM, "—" not detected, read-out: Emax (%)

| Structure (SMILES) | Emax (human GPR52 [1]; [3]) [%] | Emax (human GPR52 [1]; HEK293) [%] | further results |
| --- | --- | --- | --- |
| COC(=O)C(NC(=O)c1cccc(Nc2cc(Cc3cccc(C(F)(F)F)c3)ccn2)c1)[C@@H](C)O (stereo in doubt) [PW0673, Methyl (3-((4-(3-(trifluoromethyl)benzyl)pyridin-2-yl)amino)benzoyl)-D-allothreoninate] | 164 ± 12 | – | – |
| O=C(N[C@@H](CO)C(O)c1ccccc1)c1cccc(Nc2cc(Cc3cccc(C(F)(F)F)c3)ccn2)c1 (stereo in doubt) [PW0675, N-((1S)-1,3-Dihydroxy-1-phenylpropan-2-yl)-3-((4-(3-(trifluoromethyl)benzyl)pyridin-2-yl)amino)benzamide] | 188 ± 11 | – | – |
| O=C(NCCO)c1cccc2c1CCN2c1ccnc(Cc2cc(F)cc(C(F)(F)F)c2)n1 [Compound 12a, 1-(2-(3-Fuoro-5-(trifluoromethyl)benzyl)pyrimidin-4-yl)-N-(2-hydroxyethyl)indoline-4-carboxamide] | 144 | – | – |
| O=C(NCCO)c1cccc2c1CCN2c1nccc(Cc2cc(F)cc(C(F)(F)F)c2)n1 [Compound 12d, 1-(4-(3-Fluoro-5-(trifluoromethyl)benzyl)pyrimidin-2-yl)-N-(2-hydroxyethyl)indoline-4-carboxamide] | 138 ± 8 | – | – |
| Cc1c(Cc2cc(F)cc(C(F)(F)F)c2)cnnc1N1CCc2c(C(=O)NCCO)cccc21 [Compound 12e, 1-(5-(3-Fluoro-5-(trifluoromethyl)benzyl)-4-methylpyridazin-3-yl)-N-(2-hydroxyethyl)indoline-4-carboxamide] | – | 119 ± 6 | decreased EC50 (loss of potency) on adding a 2-substituent to compound 12b (human GPR52 [1]): > 4 fold |
| O=C(NCCO)c1cccc2c1CCN2c1nncc(Cc2cc(F)cc(C(F)(F)F)c2)c1Cl [Compound 12f, 1-(4-Chloro-5-(3-fluoro-5-(trifluoromethyl)benzyl)pyridazin-3-yl)-N-(2-hydroxyethyl)indoline-4-carboxamide] | – | 97 ± 7 | decreased EC50 (loss of potency) on adding a 2-substituent to compound 12b (human GPR52 [1]; cAMP EC50): > 4 fold |
| O=C(c1cc(F)cc(C(F)(F)F)c1)c1cc(N2CCc3c(C(=O)NCCO)cccc32)ncn1 [Compound 25b, 1-(6-(3-Fluoro-5-(trifluoromethyl)benzoyl)pyrimidin-4-yl)-N-(2-hydroxyethyl)indoline-4-carboxamide] | 22 ± 3 | – | – |
| O=C(c1cccc(C(F)(F)F)c1)c1cc(N2CCc3c(C(=O)NCCO)cccc32)ncn1 [Compound 25c, N-(2-Hydroxyethyl)-1-(6-(3-(trifluoromethyl)benzoyl)pyrimidin-4-yl)indoline-4-carboxamide] | 22 ± 4 | – | – |
| O=C(NCCO)c1cccc2c1CCN2c1nccc(C(O)c2cc(F)cc(C(F)(F)F)c2)n1 (stereo not drawn) [Compound 25d] | 130 ± 9 | – | – |
| O=C(NCCO)c1cccc2c1CCN2c1cc(C(O)c2cc(F)cc(C(F)(F)F)c2)ncn1 (stereo not drawn) [Compound 25e] | 134 ± 28 | – | – |
| O=C(NCCO)c1cccc2c1CCN2c1nccc(C(F)c2cc(F)cc(C(F)(F)F)c2)n1 (stereo not drawn) [Compound 25g, 1-(4-(Fluoro(3-fluoro-5-(trifluoromethyl)phenyl)methyl)pyrimidin-2-yl)-N-(2-hydroxyethyl)indoline-4-carboxamide] | 144 ± 9 | – | – |
| O=C(NCCO)c1cccc2c1CCN2c1cc(C(F)c2cccc(C(F)(F)F)c2)ncn1 (stereo not drawn) [Compound 25i, 1-(6-(Fluoro(3-(trifluoromethyl)phenyl)methyl)pyrimidin-4-yl)-N-(2-hydroxyethyl)indoline-4-carboxamide] | 83 ± 5 | – | – |
| O=C(NCCO)c1cccc2c1CCN2c1cc(Nc2cccc(C(F)(F)F)c2)ncn1 [Compound 25j] | 81 ± 2 | – | – |
| O=C(NCCO)c1cccc2c1CCN2c1cc(Oc2cccc(C(F)(F)F)c2)ncn1 [Compound 25k, N-(2-Hydroxyethyl)-1-(6-(3-(trifluoromethyl)phenoxy)pyrimidin-4-yl)indoline-4-carboxamide] | 99 ± 4 | – | – |
| O=C(NCCO)c1cccc2c1CCN2c1cc(Sc2cccc(C(F)(F)F)c2)ncn1 [Compound 25l] | 123 ± 6 | – | – |
| O=C(c1cccc2c1CCN2c1cc(Cc2cc(F)cc(C(F)(F)F)c2)ncn1)N1CC(O)C1 [Compound 30e, (1-(6-(3-Fluoro-5-(trifluoromethyl)benzyl)pyrimidin-4-yl)indolin-4-yl)(3-hydroxyazetidin-1-yl)methanone] | 111 ± 10 | – | – |
| O=C(c1cccc2c1CCN2c1cc(Cc2cc(F)cc(C(F)(F)F)c2)ncn1)N(CCO)CCO [Compound 30g, 1-(6-(3-Fluoro-5-(trifluoromethyl)benzyl)pyrimidin-4-yl)-N,N-bis(2-hydroxyethyl)indoline-4-carboxamide] | 119 ± 15 | – | – |
| O=C(N[C@H]1CC[C@H](O)CC1)c1cccc(Nc2cc(Cc3cccc(C(F)(F)F)c3)ccn2)c1 [PW0674, N-((1r,4R)-4-Hydroxycyclohexyl)-3-((4-(3-(trifluoromethyl)benzyl)pyridin-2-yl)amino)benzamide] | – | 131 ± 13 | – |
| O=C(NC(CO)CO)c1cccc(Nc2cc(Cc3cccc(C(F)(F)F)c3)ccn2)c1 [PW0676, N-(1,3-Dihydroxypropan-2-yl)-3-((4-(3-(trifluoromethyl)benzyl)pyridin-2-yl)amino)benzamide] | – | 214 ± 19 | G Protein Bias Factor (GPR52): 66.3; β-Arrestin Bias Factor (GPR52): 0.015; Emax (human GPR52 [2]): 125 ± 12% |
| O=C(NCC(O)CO)c1cccc(Nc2cc(Cc3cccc(C(F)(F)F)c3)ccn2)c1 (stereo not drawn) [PW0677, N-(2,3-Dihydroxypropyl)-3-((4-(3-(trifluoromethyl)benzyl)pyridin-2-yl)amino)benzamide] | – | 268 ± 12 | G Protein Bias Factor (GPR52): 63.2; β-Arrestin Bias Factor (GPR52): 0.016; Emax (human GPR52 [2]): 127 ± 7% |
| O=C(c1cccc(Nc2cc(Cc3cccc(C(F)(F)F)c3)ccn2)c1)N1CCOCC1 [PW0823] | – | 93 ± 7 | – |
| O=C(NCC(F)F)c1cccc(Nc2cc(Cc3cccc(C(F)(F)F)c3)ccn2)c1 [PW0824] | – | 152 ± 7 | – |
| COCCNC(=O)c1cccc(Nc2cc(Cc3cccc(C(F)(F)F)c3)ccn2)c1 [PW0825, N-(2-Methoxyethyl)-3-((4-(3-(trifluoromethyl)benzyl)pyridin-2-yl)amino)benzamide] | – | 131 ± 15 | – |
| O=C(NCCCCO)c1cccc(Nc2cc(Cc3cccc(C(F)(F)F)c3)ccn2)c1 [PW0832, N-(4-Hydroxybutyl)-3-((4-(3-(trifluoromethyl)benzyl)pyridin-2-yl)amino)benzamide] | – | 129 ± 8 | – |
| Cc1c(Nc2cc(Cc3ccc(Cl)cc3F)ccn2)cccc1C(=O)NCCO [PW0868, 3-((4-(4-Chloro-2-fluorobenzyl)pyridin-2-yl)amino)-N-(2-hydroxyethyl)-2-methylbenzamide] | – | 131 ± 8 | – |
